From US20210330672A1, “USE OF BCL6 INHIBITORS FOR TREATING AUTOIMMUNE DISEASES” (TEQLA THERAPEUTICS INC., priority 2018, published 2021)

Assays:
[1] = test system: germinal centers of the spleen; assay: IHC with PNA staining of spleen as a measure of germinal center activity in KLH-immunized mice; format: in vivo, C57BL/6 mice; conditions: spleen Day 14; for Staining Intensity, Group Mean: PNA IHC, KLH + Vehicle group 2.4; for % PNA-Positive Staining of Germinal Center, Group Mean: KLH + Vehicle group 42%
Experimental: (§1) Experimental animals: Female C57BL/6 mice were purchased from Envigo (Livermore, Calif.) to provide 8- to 10-week-old animals at the time of immunization. IgG measurements were performed using Innovative Research KLH IgG ELISA kit. Germinal center staining was performed on Dako autostainer using procedures well known in the art.
(§2) On Day 0, animals of Groups 2-6 (n=10 each) were immunized by intraperitoneal (IP) injection with 0.2 mL (0.5 mg) per mouse of KLH, a dose determined to be optimal for IP administration without adjuvant. Mice from Group 1 (n=5) were sham-immunized by IP injection of 0.2 mL PBS per mouse.
(§3) Starting on Day 0 (immediately post-immunization) and continuing through Day 13 (i.e., 14 days total), animals in Group 1, 2, and 4-6 were injected IP once daily (QD) with vehicle, 30 mg/kg Compound 1, 10 mg/kg Compound 1, or 100 mg/kg Compound 2; animals in Group 3 were injected IP once weekly (QW) with 50 mg/kg CP. All doses were administered by IP injection at 5 mL/kg at approximately the same time (±1 h) each day.
(§4) On Day 14 (at approximately 24 hours after the final dose administration), all animals were subjected to terminal cardiocentesis and euthanized. Following clotting and processing, the resulting serum samples were flash-frozen and stored at −80° C. pending analysis by enzyme-linked immunosorbent assay (ELISA). The spleen was harvested from each mouse and split into two. One half of each spleen was collected for immunohistochemical (IHC) analysis of germinal center activity using peanut agglutinin (PNA) staining. Single-cell suspensions were collected from the other spleen halves and stored in DMSO cell-freezing medium. These samples were to be used for optional FACS analysis. Remaining tissues were discarded without further evaluation.
(§5) Statistical analysis: Descriptive and inferential analyses were performed using the corresponding functions of Excel 2010 (Microsoft, Redmond, Wash.). Inferential analysis consisted of t-test comparisons (two-tailed, non-paired, heteroscedasticity assumed) between groups as indicated. Values of p<0.05 were considered statistically significant.
Immunohistochemical (IHC) Staining with Peanut Agglutinin (PNA) as a Measure of Germinal Center Activity. IHC with PNA staining was used to determine the levels of positive staining in the germinal centers of the spleen.

KLH-specific IgG = assay: KLH-specific serum IgG (ELISA) after in vivo treatment of KLH-immunized mice; set-up: species or system C57BL/6 mice; conditions: for Serum IgG Level, Day 14, Group Mean: KLH-immunized mice, KLH + Vehicle group 223879
Experimental: as §1, §2, §3, §4, §5
Results:KLH-specific IgG Levels. ELISA (performed as experimental replicates) was used to determine the levels of immunoglobulin G (IgG) specific for KLH in the terminal serum samples.

`CNC(=O)COc1cc2cc(Nc3nc(N4CCC(C(=O)N(C)C)CC4)ncc3Cl)cc(OC)c2n(C)c1=O` [Compound 2, 1-(5-chloro-4-((8-methoxy-1-methyl-3-(2-(methylamino)-2-oxoethoxy)-2-oxo-1,2-dihydroquinolin-6-yl)amino)pyrimidin-2-yl)-N,N-dimethylpiperidine-4-carboxamide] was tested, and the “Staining Intensity, Group Mean” value ([1]; 100 mpk IP once daily) was 1.1, the “% PNA-Positive Staining of Germinal Center, Group Mean” value (from here on “% PNA-Positive Staining”) ([1]; 100 mpk IP once daily) was 7% and the “attenuation of immune response to KLH (reduced IgG levels and germinal center activity)” value (KLH-specific IgG; 100 mg/kg, IP, once daily over 14 days) was “highly significant attenuation”. For the same compound, the “attenuation of immune response to KLH” value (KLH-specific IgG; 10 or 30 mg/kg, IP, once daily over 14 days, no observable dose response) was “less significant attenuation” and the “Serum IgG Level, Day 14, Group Mean” value (KLH-specific IgG; 100 mpk IP once daily Days 0-13) was 41503 U/mL.

In the case of `CNC(=O)COc1cc2cc(Nc3nc(N4C[C@H](C)C[C@H](C)C4)ncc3Cl)ccc2n(C)c1=O` [Compound 1, 2-((6-((5-chloro-2-((3R,5S)-3,5-dimethylpiperidin-1-yl)pyrimidin-4-yl)amino)-1-methyl-2-oxo-1,2-dihydroquinolin-3-yl)oxy)-N-methylacetamide], the “Staining Intensity, Group Mean” value ([1]; 10 mpk IP once daily) is reported as 1.2, the “Staining Intensity, Group Mean” value ([1]; 30 mpk IP once daily) is reported as 1.5 and the “% PNA-Positive Staining” value ([1]; 10 mpk IP once daily) is reported as 12%. For the same compound, the “% PNA-Positive Staining” value ([1]; 30 mpk IP once daily) was 12%, the “Serum IgG Level, Day 14, Group Mean” value (KLH-specific IgG; 10 mpk IP once daily Days 0-13) was 100997 U/mL and the “Serum IgG Level, Day 14, Group Mean” value (KLH-specific IgG; 30 mpk IP once daily Days 0-13) was 103098 U/mL.

In the case of `O=P1(N(CCCl)CCCl)NCCCO1` (stereo not drawn) [CP, cyclophosphamide, reference compound], the “Staining Intensity, Group Mean” value ([1]; 50 mpk IP once weekly) is reported as 1.3, the “% PNA-Positive Staining” value ([1]; 50 mpk IP once weekly) is reported as 29% and the “attenuation of immune response to KLH (serum IgG and PNA staining of splenic germinal centers)” value (KLH-specific IgG; 50 mg/kg, IP, once weekly over 14 days) is reported as “nominal but non-significant attenuation”. For the same compound, the “Serum IgG Level, Day 14, Group Mean” value (KLH-specific IgG; 50 mpk IP once weekly over 14 days) was 161482 U/mL.
